Marks after values point to notes of the source that are not given here.
Legend:
Puccinia recondita = assay: In vivo test on Puccinia recondita (brown rust); conditions: wheat plants, spray, 500 ppm, grading 10 days after contamination
How it was run: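 Wheat (Scipion) at the 1-leaf stage sprayed with compound suspension (acetone/tween/DMSO diluted in water), then inoculated 24 h later with Puccinia recondita spores at 100.000 spores per ml. Plants were held 24 h at 20 °C/100% RH, then 10 days at 20 °C/70% RH; protection graded 10 days post-inoculation versus untreated controls.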

Pyrenophora teres = assay: In vivo test on Pyrenophora teres (barley net blotch); conditions: barley plants, spray, 500 ppm, grading 12 days after contamination
Protocol: The active ingredients tested are prepared by homogenization in a mixture of acetone/Tween/DMSO, then diluted with water to obtain the desired active material concentration.
Barley plants (Plaisant variety), sown on a 50/50 peat soil-pozzolana substrate in starter cups and grown at 22° C. (12 h)/20° C. (12 h), are treated at the 1-leaf stage (10 cm tall) by spraying with the active ingredient prepared as described above.
Plants, used as controls, are treated with an aqueous solution not containing the active material.
After 24 hours, the plants are contaminated by spraying them with an aqueous suspension of Pyrenophora teres spores (12.000 spores per ml). The spores are collected from a 12-day-old culture.
The contaminated barley plants are incubated for 24 hours at about 20° C. and at 100% relative humidity, and then for 12 days at 80% relative humidity.
Grading is carried out 12 days after the contamination, in comparison with the control plants.
Under these conditions, good (at least 70%) is observed at a dose of 500 ppm with the following compounds: […]

Alternaria brassicae = assay: In vivo test on Alternaria brassicae (leaf spot of crucifers); conditions: radish plants, spray, 500 ppm, grading 6 to 7 days after contamination
Protocol: (§1) The active ingredients tested are prepared by homogenization in a mixture of acetone/tween/DMSO, then diluted with water to obtain the desired active material.
Radish plants (Pernot variety), sown on a 50/50 peat soil-pozzolana substrate in starter cups and grown at 18-20° C., are treated at the cotyledon stage by spraying with the active ingredient prepared as described above.
Plants, used as controls, are treated with the mixture of acetone/tween/water not containing the active material.
After 24 hours, the plants are contaminated by spraying them with an aqueous suspension of Alternaria brassicae spores (40,000 spores per cm^3). The spores are collected from a 12 to 13 days-old culture.
The contaminated radish plants are incubated for 6-7 days at about 18° C., under a humid atmosphere.
Grading is carried out 6 to 7 days after the contamination, in comparison with the control plants.
Under these conditions, good protection (at least 70%) is observed at a dose of 500 ppm with the following compounds: […]

Sphaerotheca fuliginea = assay: In vivo test on Sphaerotheca fuliginea (cucurbits powdery mildew); conditions: gherkin plants, spray, 500 ppm, grading 12 days after contamination
Protocol: as §1
Gherkin plants (Vert petit de Paris variety) in starter cups, sown on a 50/50 peat soil-pozzolana substrate and grown at 20° C./23° C., are treated at the cotyledon Z10 stage by spraying with the aqueous suspension described above. Plants, used as controls, are treated with an aqueous solution not containing the active material.
After 24 hours, the plants are contaminated by spraying them with an aqueous suspension of Sphaerotheca fuliginea spores (100.000 spores per ml). The spores are collected from a contaminated plants. The contaminated gherkin plants are incubated at about 20° C./25° C. and at 60/70% relative humidity.
Grading (% of efficacy) is carried out 12 days after the contamination, in comparison with the control plants.
Under these conditions, good (at least 70%) or total protection is observed at a dose of 500 ppm with the following compounds: […]

[1] = tested on: Mycosphaerella graminicola; assay: In vivo test on Mycosphaerella graminicola (wheat leaf spot); conditions: wheat plants, spray, 500 ppm, grading 21 to 28 days after contamination
How it was run: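 Scipion wheat at 1-leaf stage was sprayed with compound suspension (acetone/tween/DMSO diluted in water), then inoculated 24 h later with spores (500.000/ml). Plants were held 72 h at 18° C and 100% RH, then 21 to 28 days at 90% RH. Efficacy was graded as % versus untreated controls.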

[2] = pH 2.7
Uromyces appendiculatus = assay: In vivo test on Uromyces appendiculatus (brown rust of bean); conditions: Saxa variety plants, spray, 500 ppm, grading 10 days after contamination
Phytophthora infestans = type: in vivo; conditions: tomato plants, spray, 500 ppm, grading 5 days after contamination

Which results are given for `COc1cccc(C(=O)Nc2nc(CO/N=C(/c3ccccc3)c3noc(=O)n3C)cs2)c1` [Example 212]?
Eff. % (Puccinia recondita): 89%; Eff. % (Pyrenophora teres): 97%; Eff. % (Alternaria brassicae): 70%; Eff. % (Sphaerotheca fuliginea): 100%; Eff. % [1]: 100%; LogP [2]: 3.58 [a]; Eff. % (Uromyces appendiculatus): 100%; Eff. % (Phytophthora infestans): 73%
